Values quoted from earlier work in US11007152B2, “Pharmaceutical composition comprising amorphous lenalidomide and an antioxidant” (Synthon B.V., priority 2015, dated 2021).

solubility in water: slightly soluble
Compound: Nc1cccc2c1CN(C1CCC(=O)NC1=O)C2=O (racemic) [Lenalidomide, (RS)-3-(4-Amino-1-oxo 1,3-dihydro-2H-isoindol-2-yl)piperidine-2,6-dione]
